# Biological target: T1, human apelin receptor (APJ, APLNR) (Homo sapiens, UniProt P35414)
# T1 construct: host or cells: Chinese hamster ovary (CHO) cells, stably integrated receptor
# T1 sequence (P35414 1-380): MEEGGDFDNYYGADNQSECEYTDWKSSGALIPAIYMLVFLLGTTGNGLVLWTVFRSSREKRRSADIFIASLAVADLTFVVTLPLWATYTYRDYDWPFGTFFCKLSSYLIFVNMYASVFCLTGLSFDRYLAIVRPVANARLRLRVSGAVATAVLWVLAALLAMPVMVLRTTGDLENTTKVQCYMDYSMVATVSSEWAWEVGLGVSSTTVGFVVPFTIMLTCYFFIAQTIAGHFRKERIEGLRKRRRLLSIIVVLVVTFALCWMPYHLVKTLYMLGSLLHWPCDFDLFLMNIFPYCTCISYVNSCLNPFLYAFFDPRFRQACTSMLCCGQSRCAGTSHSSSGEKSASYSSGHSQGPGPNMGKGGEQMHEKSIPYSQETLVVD
# Experiment: cell-based cAMP assay (TR-FRET) in Chinese hamster ovary cells expressing the apelin receptor
# Conditions: EC50 = 50% of control (apelin-13, 1 nM) response; cAMP in CHO cells, 0.5 h incubation; read-out: Potency Category
# Procedure, shortened: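 CHO cells stably expressing human APJ were forskolin-stimulated, then exposed to compound (0.0-100 μM, ≤1% DMSO) for 0.5 h. Lysate cAMP read by competitive TR-FRET immunoassay; EC50 and efficacy expressed relative to 1 nM apelin-13, four-parameter fit over ≥10 concentrations.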
row,SMILES,EC50 [µM]
1,"Cc1cccc(CO)c1-c1c(C)nn2c(C(C)C)cc(C(=O)O)nc12 [Compound 128, 3-[6-(hydroxymethyl)-2-methylphenyl]-2-methyl-7-(methylethyl)-8-hydropyrazolo[1,5-a]pyrimidine-5-carboxylic acid]",< 0.1
2,"CCOC(=O)c1cc(C(C)C)n2nc(C)c(-c3c(C)cccc3Br)c2n1 [Compound 129, ethyl 3-(2-bromo-6-methylphenyl)-2-methyl-7-(methylethyl)-8-hydropyrazolo[1,5-a]pyrimidine-5-carboxylate]",> 0.5
3,"Cc1cccc(Br)c1-c1c(C)nn2c(C(C)C)cc(C(=O)O)nc12 [Compound 130, 3-(2-bromo-6-methylphenyl)-2-methyl-7-(methylethyl)-8-hydropyrazolo[1,5-a]pyrimidine-5-carboxylic acid]",0.2 to 0.5
4,"COCc1cccc(C)c1-c1c(C)nn2c(C(C)C)cc(C(=O)O)nc12 [Compound 131, 3-[6-(methoxymethyl)-2-methylphenyl]-2-methyl-7-(methylethyl)-8-hydropyrazolo[1,5-a]pyrimidine-5-carboxylic acid]",< 0.1
5,"COC(=O)c1cc(Nc2ccc(F)cc2)n2nc(C)c(-c3c(C)cccc3C)c2n1 [Compound 132, methyl 3-(2,6-dimethylphenyl)-7-[(4-fluorophenyl)amino]-2-methyl-8-hydropyrazolo[1,5-a]pyrimidine-5-carboxylate]",> 0.5
6,"COC(=O)c1cc(Nc2ccc(Cl)cc2)n2nc(C)c(-c3c(C)cccc3C)c2n1 [Compound 133, methyl 3-(2,6-dimethylphenyl)-7-[(4-chlorophenyl)amino]-2-methyl-8-hydropyrazolo[1,5-a]pyrimidine-5-carboxylate]",> 0.5
7,"COC(=O)c1cc(Nc2ccc(C)cc2)n2nc(C)c(-c3c(C)cccc3C)c2n1 [Compound 134, methyl 3-(2,6-dimethylphenyl)-2-methyl-7-[(4-methylphenyl)amino]-8-hydropyrazolo[1,5-a]pyrimidine-5-carboxylate]",> 0.5
8,"COC(=O)c1cc(Nc2ccc(OC)cc2)n2nc(C)c(-c3c(C)cccc3C)c2n1 [Compound 135, methyl 3-(2,6-dimethylphenyl)-7-[(4-methoxyphenyl)amino]-2-methyl-8-hydropyrazolo[1,5-a]pyrimidine-5-carboxylate]",> 0.5
9,"COC(=O)c1cc(Nc2ccc(C(F)(F)F)cc2)n2nc(C)c(-c3c(C)cccc3C)c2n1 [Compound 136, methyl 3-(2,6-dimethylphenyl)-2-methyl-7-{[4-(trifluoromethyl)phenyl]amino}-8-hydropyrazolo[1,5-a]pyrimidine-5-carboxylate]",> 0.5
10,"COC(=O)c1cc(Nc2ccc(OC(F)(F)F)cc2)n2nc(C)c(-c3c(C)cccc3C)c2n1 [Compound 137, methyl 3-(2,6-dimethylphenyl)-2-methyl-7-{[4-(trifluoromethoxy)phenyl]amino}-8-hydropyrazolo[1,5-a]pyrimidine-5-carboxylate]",> 0.5
11,"COC(=O)c1cc(Nc2ccc(C#N)cc2)n2nc(C)c(-c3c(C)cccc3C)c2n1 [Compound 138, methyl 3-(2,6-dimethylphenyl)-7-[(4-cyanophenyl)amino]-2-methyl-8-hydropyrazolo[1,5-a]pyrimidine-5-carboxylate]",> 0.5
12,"Cc1cccc(C)c1-c1c(C)nn2c(Nc3ccc(F)cc3)cc(C(=O)O)nc12 [Compound 139, 3-(2,6-dimethylphenyl)-7-[(4-fluorophenyl)amino]-2-methyl-8-hydropyrazolo[1,5-a]pyrimidine-5-carboxylic acid]",> 0.5
13,"Cc1cccc(C)c1-c1c(C)nn2c(C3=CCNCC3)cc(C(=O)O)nc12 [Compound 158, 3-(2,6-dimethylphenyl)-2-methyl-7-(4-1,2,5,6-tetrahydropyridyl)-8-hydropyrazolo[1,5-a]pyrimidine-5-carboxylic acid]",> 0.5

# Second part, the compound after the results:
row,EC50 [µM],SMILES
1,> 0.5,"Cc1cccc(C)c1-c1c(C)nn2c(Nc3ccc(Cl)cc3)cc(C(=O)O)nc12 [Compound 140, 3-(2,6-dimethylphenyl)-7-[(4-chlorophenyl)amino]-2-methyl-8-hydropyrazolo[1,5-a]pyrimidine-5-carboxylic acid]"
2,> 0.5,"Cc1ccc(Nc2cc(C(=O)O)nc3c(-c4c(C)cccc4C)c(C)nn23)cc1 [Compound 141, 3-(2,6-dimethylphenyl)-2-methyl-7-[(4-methylphenyl)amino]-8-hydropyrazolo[1,5-a]pyrimidine-5-carboxylic acid]"
3,> 0.5,"COc1ccc(Nc2cc(C(=O)O)nc3c(-c4c(C)cccc4C)c(C)nn23)cc1 [Compound 142, 3-(2,6-dimethylphenyl)-7-[(4-methoxyphenyl)amino]-2-methyl-8-hydropyrazolo[1,5-a]pyrimidine-5-carboxylic acid]"
4,> 0.5,"Cc1cccc(C)c1-c1c(C)nn2c(Nc3ccc(C(F)(F)F)cc3)cc(C(=O)O)nc12 [Compound 143, 3-(2,6-dimethylphenyl)-2-methyl-7-{[4-(trifluoromethyl)phenyl]amino}-8-hydropyrazolo[1,5-a]pyrimidine-5-carboxylic acid]"
5,> 0.5,"Cc1cccc(C)c1-c1c(C)nn2c(Nc3ccc(OC(F)(F)F)cc3)cc(C(=O)O)nc12 [Compound 144, 3-(2,6-dimethylphenyl)-2-methyl-7-{[4-(trifluoromethoxy)phenyl]amino}-8-hydropyrazolo[1,5-a]pyrimidine-5-carboxylic acid]"
6,> 0.5,"Cc1cccc(C)c1-c1c(C)nn2c(Nc3ccc(C#N)cc3)cc(C(=O)O)nc12 [Compound 145, 3-(2,6-dimethylphenyl)-7-[(4-cyanophenyl)amino]-2-methyl-8-hydropyrazolo[1,5-a]pyrimidine-5-carboxylic acid]"
7,> 0.5,"COC(=O)c1cc(N(C)c2ccccc2)n2nc(C)c(-c3c(C)cccc3C)c2n1 [Compound 146, methyl 3-(2,6-dimethylphenyl)-2-methyl-7-(methylphenylamino)-8-hydropyrazolo[1,5-a]pyrimidine-5-carboxylate]"
8,> 0.5,"COC(=O)c1cc(N(C)c2ccc(C)cc2)n2nc(C)c(-c3c(C)cccc3C)c2n1 [Compound 147, methyl 3-(2,6-dimethylphenyl)-2-methyl-7-[methyl(4-methylphenyl)amino]-8-hydropyrazolo[1,5-a]pyrimidine-5-carboxylate]"
9,> 0.5,COC(=O)c1cc(N(C)c2ccc(F)cc2)n2nc(C)c(-c3c(C)cccc3C)c2n1 [Compound 148]
10,> 0.5,Cc1cccc(C)c1-c1c(C)nn2c(N(C)c3ccccc3)cc(C(=O)O)nc12 [Compound 149]
11,> 0.5,"Cc1ccc(N(C)c2cc(C(=O)O)nc3c(-c4c(C)cccc4C)c(C)nn23)cc1 [Compound 150, 3-(2,6-dimethylphenyl)-2-methyl-7-[methyl(4-methylphenyl)amino]-8-hydropyrazolo[1,5-a]pyrimidine-5-carboxylic acid]"
12,> 0.5,"Cc1cccc(C)c1-c1c(C)nn2c(N(C)c3ccc(F)cc3)cc(C(=O)O)nc12 [Compound 151, 3-(2,6-dimethylphenyl)-7-[(4-fluorophenyl)methylamino]-2-methyl-8-hydropyrazolo[1,5-a]pyrimidine-5-carboxylic acid]"
13,> 0.5,"Cc1cccc(C)c1-c1c(C)nn2c(N3CCNCC3)cc(C(=O)O)nc12 [Compound 152, 3-(2,6-dimethylphenyl)-2-methyl-7-piperazinyl-8-hydropyrazolo[1,5-a]pyrimidine-5-carboxylic acid]"
14,> 0.5,"CCCN(C)c1cc(C(=O)O)nc2c(-c3c(C)cccc3C)c(C)nn12 [Compound 153, 3-(2,6-dimethylphenyl)-2-methyl-7-(methylpropylamino)-8-hydropyrazolo[1,5-a]pyrimidine-5-carboxylic acid]"
15,> 0.5,"Cc1cccc(C)c1-c1c(C)nn2c(C3=CCCCC3)cc(C(=O)O)nc12 [Compound 154, 3-(2,6-dimethylphenyl)-7-cyclohex-1-enyl-2-methyl-8-hydropyrazolo[1,5-a]pyrimidine-5-carboxylic acid]"
16,> 0.5,"Cc1cccc(C)c1-c1c(C)nn2c(C3CCCCC3)cc(C(=O)O)nc12 [Compound 155, 3-(2,6-dimethylphenyl)-7-cyclohexyl-2-methyl-8-hydropyrazolo[1,5-a]pyrimidine-5-carboxylic acid]"
17,> 0.5,"Cc1cccc(C)c1-c1c(C)nn2c(-c3ccco3)cc(C(=O)O)nc12 [Compound 156, 3-(2,6-dimethylphenyl)-7-(2-furyl)-2-methyl-8-hydropyrazolo[1,5-a]pyrimidine-5-carboxylic acid]"
18,> 0.5,"COC(=O)c1cc(Cl)n2nc(C)c(-c3c(C)cccc3C)c2n1 [Compound 159, methyl 3-(2,6-dimethylphenyl)-7-chloro-2-methyl-8-hydropyrazolo[1,5-a]pyrimidine-5-carboxylate]"

# From US12006321B2, “Substituted pyrazolo[1,5-a]pyrimidines as apelin receptor agonists” (Sanford Burnham Prebys Medical Discovery Institute, priority 2017, dated 2024)
